From US20250230193A1, “CYCLIC COMPOUND HAVING SELECTIVE KRAS INHIBITORY EFFECT ON HRAS AND NRAS” (CHUGAI SEIYAKU KABUSHIKI KAISHA, priority 2022, published 2025)

Tests used:
[1] = biological target: GDP-bound HRAS wild-type protein (Homo sapiens, UniProt P01112); test: Binding to HRAS by surface plasmon resonance (SPR), Single Cycle Kinetics; conditions: KD ratio HRAS/KRAS, class symbols
[2] = biological target: GDP-bound NRAS wild-type protein (Homo sapiens, UniProt P01111); test: Binding to NRAS by surface plasmon resonance (SPR), Single Cycle Kinetics; conditions: KD ratio NRAS/KRAS, class symbols
Chain of GDP-bound NRAS wild-type protein (P01111 whole entry): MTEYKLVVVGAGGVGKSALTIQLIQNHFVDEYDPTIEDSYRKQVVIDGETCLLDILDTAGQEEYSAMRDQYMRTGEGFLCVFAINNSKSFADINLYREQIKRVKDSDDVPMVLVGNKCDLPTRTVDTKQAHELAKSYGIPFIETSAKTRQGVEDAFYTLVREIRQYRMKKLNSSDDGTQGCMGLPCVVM

Chain of GDP-bound HRAS wild-type protein (P01112 whole entry): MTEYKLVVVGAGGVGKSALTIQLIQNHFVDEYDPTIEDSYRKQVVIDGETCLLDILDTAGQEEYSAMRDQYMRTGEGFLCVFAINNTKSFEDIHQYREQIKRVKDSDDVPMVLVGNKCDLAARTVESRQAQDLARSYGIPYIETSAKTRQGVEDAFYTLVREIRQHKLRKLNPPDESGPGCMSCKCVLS

Compound	HRAS/KRAS (ratio of KD value with respect to GDP-bound HRAS wild-type protein to KD value with respect to KRAS) [1]	NRAS/KRAS (ratio of KD value with respect to GDP-bound NRAS wild-type protein to KD value with respect to KRAS) [2]
CCO[C@@H]1C[C@H]2C(=O)NC3(CC(C)(C)C3)C(=O)N(C)[C@@H](C3CCCC3)C(=O)N(C)[C@H](C(=O)N(C)CC)CC(=O)N(C)[C@@H](COC)C(=O)N[C@@H]([C@@H](C)CC)C(=O)N(C)CC(=O)N(C)[C@H]3C/C=C\CCN(C3=O)[C@@H](Cc3ccc(C(F)(F)F)cc3)C(=O)N(C)CC(=O)N[C@@H](CCc3ccc(Cl)c(Cl)c3)C(=O)N2C1 [PP2835]	A (a compound having 10 or more and less than 20 is denoted as A)	A (a compound having 10 or more and less than 20 is denoted as A)
CCO[C@@H]1C[C@H]2C(=O)NC3(CC(C)(C)C3)C(=O)N(C)[C@@H](C3CCCC3)C(=O)N(C)[C@H](C(=O)N(C)CC)CC(=O)N(C)[C@@H](COC)C(=O)N[C@@H]([C@@H](C)CC)C(=O)N(C)CC(=O)N(C)[C@H]3C/C=C\CCN(C3=O)[C@@H](Cc3ccc(C(F)(F)F)cc3)C(=O)N(C)CC(=O)N[C@@H](CCc3ccc(C(F)(F)F)c(Cl)c3)C(=O)N2C1 [PP2836]	A (a compound having 10 or more and less than 20 is denoted as A)	A (a compound having 10 or more and less than 20 is denoted as A)
CCO[C@@H]1C[C@H]2C(=O)NC3(CCCC3)C(=O)N(C)[C@@H](C3CCCC3)C(=O)N(C)[C@H](C(=O)N(C)C)CC(=O)N(C)[C@@H](CC(C)C)C(=O)N[C@@H]([C@@H](C)CC)C(=O)N(C)CC(=O)N(C)[C@H]3C/C=C\CCN(C3=O)[C@@H](Cc3ccc(C(F)(F)F)cc3)C(=O)N(C)CC(=O)N[C@@H](CCc3ccc(Cl)c(Cl)c3)C(=O)N2C1 [PP2837]	A (a compound having 10 or more and less than 20 is denoted as A)	AA (a compound having 20 or more is denoted as AA)
CCO[C@@H]1C[C@H]2C(=O)NC3(CCCC3)C(=O)N(C)[C@@H](C3CCCC3)C(=O)N(C)[C@H](C(=O)N(C)C)CC(=O)N(C)[C@@H](CC(C)C)C(=O)N[C@@H]([C@@H](C)CC)C(=O)N(C)CC(=O)N(C)[C@H]3C/C=C\CCN(C3=O)[C@@H](Cc3ccc(C(F)(F)F)cc3)C(=O)N(C)CC(=O)N[C@@H](CCc3ccc(C(F)(F)F)c(Cl)c3)C(=O)N2C1 [PP2838]	A (a compound having 10 or more and less than 20 is denoted as A)	AA (a compound having 20 or more is denoted as AA)
CCCC[C@H]1C(=O)N[C@@H]([C@@H](C)CC)C(=O)N(C)CC(=O)N(C)[C@H]2C/C=C\CCN(C2=O)[C@@H](Cc2ccc(C(F)(F)F)cc2)C(=O)N(C)CC(=O)N[C@@H](CCc2ccc(C(F)(F)F)c(OC)c2)C(=O)N2C[C@H](OCC)C[C@H]2C(=O)NC2(CCC2)C(=O)N(C)[C@@H](C2CCCC2)C(=O)N(C)[C@H](C(=O)N(C)CC)CC(=O)N1C [PP2840]	A (a compound having 10 or more and less than 20 is denoted as A)	A (a compound having 10 or more and less than 20 is denoted as A)
CCCC[C@H]1C(=O)N[C@@H]([C@@H](C)CC)C(=O)N(C)CC(=O)N(C)[C@H]2C/C=C\CCN(C2=O)[C@@H](Cc2ccc(C(F)(F)F)cc2)C(=O)N(C)CC(=O)N[C@@H](CCc2ccc(C(F)(F)F)c(Cl)c2)C(=O)N2C[C@H](OCC)C[C@H]2C(=O)NC2(CCC2)C(=O)N(C)[C@@H](C2CCCC2)C(=O)N(C)[C@H](C(=O)N(C)CC)CC(=O)N1C [PP2841]	A (a compound having 10 or more and less than 20 is denoted as A)	A (a compound having 10 or more and less than 20 is denoted as A)
CCO[C@@H]1C[C@H]2C(=O)NC3(CCC3)C(=O)N(C)[C@@H](C3CCCC3)C(=O)N(C)[C@H](C(=O)N(C)C)CC(=O)N(C)[C@@H](CC3CCCC3)C(=O)N[C@@H]([C@@H](C)CC)C(=O)N(C)CC(=O)N(C)[C@H]3C/C=C\CCN(C3=O)[C@@H](Cc3ccc(C(F)(F)F)cc3)C(=O)N(C)CC(=O)N[C@@H](CCc3ccc(C(F)(F)F)c(Cl)c3)C(=O)N2C1 [PP2842]	B (a compound having 3 or more and less than 10 is denoted as B)	A (a compound having 10 or more and less than 20 is denoted as A)
C#CC[C@H]1C(=O)N[C@@H]([C@@H](C)CC)C(=O)N(C)CC(=O)N(C)[C@H]2C/C=C\CCN(C2=O)[C@@H](Cc2ccc(C(F)(F)F)cc2)C(=O)N(C)CC(=O)N[C@@H](CCc2ccc(Cl)c(Cl)c2)C(=O)N2C[C@H](OCC)C[C@H]2C(=O)NC2(CC(C)(C)C2)C(=O)N(C)[C@@H](C2CCCC2)C(=O)N(C)[C@H](C(=O)N(C)CC)CC(=O)N1C [PP2843]	A (a compound having 10 or more and less than 20 is denoted as A)	A (a compound having 10 or more and less than 20 is denoted as A)
C#CC[C@H]1C(=O)N[C@@H]([C@@H](C)CC)C(=O)N(C)CC(=O)N(C)[C@H]2C/C=C\CCN(C2=O)[C@@H](Cc2ccc(C(F)(F)F)cc2)C(=O)N(C)CC(=O)N[C@@H](CCc2ccc(C(F)(F)F)c(Cl)c2)C(=O)N2C[C@H](OCC)C[C@H]2C(=O)NC2(CC(C)(C)C2)C(=O)N(C)[C@@H](C2CCCC2)C(=O)N(C)[C@H](C(=O)N(C)CC)CC(=O)N1C [PP2844]	A (a compound having 10 or more and less than 20 is denoted as A)	A (a compound having 10 or more and less than 20 is denoted as A)
CCO[C@@H]1C[C@H]2C(=O)NC3(CCC3)C(=O)N(C)[C@@H](C3CCCC3)C(=O)N(C)[C@H](C(=O)N(C)CC)CC(=O)N(C)[C@@H](CC(C)C)C(=O)N[C@@H]([C@@H](C)CC)C(=O)N(C)CC(=O)N(C)[C@H]3C/C=C\CCN(C3=O)[C@@H](Cc3ccc(C(F)(F)F)cc3)C(=O)N(C)CC(=O)N[C@@H](CCc3ccc(Cl)c(Cl)c3)C(=O)N2C1 [PP2845]	A (a compound having 10 or more and less than 20 is denoted as A)	AA (a compound having 20 or more is denoted as AA)
CCO[C@@H]1C[C@H]2C(=O)NC3(CCC3)C(=O)N(C)[C@@H](C3CCCC3)C(=O)N(C)[C@H](C(=O)N(C)CC)CC(=O)N(C)[C@@H](CC(C)C)C(=O)N[C@@H]([C@@H](C)CC)C(=O)N(C)CC(=O)N(C)[C@H]3C/C=C\CCN(C3=O)[C@@H](Cc3ccc(C(F)(F)F)cc3)C(=O)N(C)CC(=O)N[C@@H](CCc3ccc(C(F)(F)F)c(OC)c3)C(=O)N2C1 [PP2846]	A (a compound having 10 or more and less than 20 is denoted as A)	AA (a compound having 20 or more is denoted as AA)
CCO[C@@H]1C[C@H]2C(=O)NC3(CCC3)C(=O)N(C)[C@@H](C3CCCC3)C(=O)N(C)[C@H](C(=O)N(C)CC)CC(=O)N(C)[C@@H](CC(C)C)C(=O)N[C@@H]([C@@H](C)CC)C(=O)N(C)CC(=O)N(C)[C@H]3C/C=C\CCN(C3=O)[C@@H](Cc3ccc(C(F)(F)F)cc3)C(=O)N(C)CC(=O)N[C@@H](CCc3ccc(C(F)(F)F)c(Cl)c3)C(=O)N2C1 [PP2847]	A (a compound having 10 or more and less than 20 is denoted as A)	A (a compound having 10 or more and less than 20 is denoted as A)
CCC[C@H]1C(=O)N[C@@H]([C@@H](C)CC)C(=O)N(C)CC(=O)N(C)[C@H]2C/C=C\CCN(C2=O)[C@@H](Cc2ccc(C(F)(F)F)cc2)C(=O)N(C)CC(=O)N[C@@H](CCc2ccc(CC)c(Cl)c2)C(=O)N2C[C@H](OCC)C[C@H]2C(=O)NC2(CC(C)(C)C2)C(=O)N(C)[C@@H](C2CCCC2)C(=O)N(C)[C@H](C(=O)N(C)C)CC(=O)N1C [PP2848]	A (a compound having 10 or more and less than 20 is denoted as A)	A (a compound having 10 or more and less than 20 is denoted as A)
CCC[C@H]1C(=O)N[C@@H]([C@@H](C)CC)C(=O)N(C)CC(=O)N(C)[C@H]2C/C=C\CCN(C2=O)[C@@H](Cc2ccc(C(F)(F)F)cc2)C(=O)N(C)CC(=O)N[C@@H](CCc2cc(F)c3c(c2)CCC3)C(=O)N2C[C@H](OCC)C[C@H]2C(=O)NC2(CC(C)(C)C2)C(=O)N(C)[C@@H](C2CCCC2)C(=O)N(C)[C@H](C(=O)N(C)C)CC(=O)N1C [PP2849]	A (a compound having 10 or more and less than 20 is denoted as A)	A (a compound having 10 or more and less than 20 is denoted as A)
CCC[C@H]1C(=O)N[C@@H]([C@@H](C)CC)C(=O)N(C2CC2)CC(=O)N(C)[C@H]2C/C=C\CCN(C2=O)[C@@H](Cc2ccc(C)cc2)C(=O)N(C)CC(=O)N[C@@H](CCc2ccc(C(F)(F)F)c(CC)c2)C(=O)N2C[C@H](OCC)C[C@H]2C(=O)NC2(CC(C)(C)C2)C(=O)N(C)[C@@H](C2CCCC2)C(=O)N(C)[C@H](C(=O)N(C)C)CC(=O)N1C [PP2870]	A (a compound having 10 or more and less than 20 is denoted as A)	A (a compound having 10 or more and less than 20 is denoted as A)
